Measured values: patent US8486900B2, “Method for preparing a Centella asiatica extract rich in madecassoside and in terminoloside” (Bayer Consumer Care AG, priority 2002, dated 2013)

System: HaCaT human keratinocytes
Experiment: Cytotoxicity, Neutral Red colorimetric assay on HaCaT human keratinocytes
Assay type: cell-based
Conditions: for Viability (24 h), % of control / Viability (72 h), % of control: Example 12, HaCaT
Description: The cytotoxicity was studied on HaCaT human keratinocytes seeded into 96-well plates at a rate of 20×10^3, broad range, and 10×10^3, limited range, cells per well. The cell viability is evaluated by means of a colorimetric assay with Neutral Red. Neutral Red is a weakly cationic dye that penetrates cell membranes by means of a nonionic diffusion phenomenon and binds intracellularly to the phosphate and/or carboxylic groups of the lysosomal matrix. Modifications in the accumulation and retention of Neutral Red are observed when the cell membranes are damaged. The optical density of the solution obtained after incubation of the cells in the presence of Neutral Red is therefore proportional to the number of living cells.
A broad range of 9 concentrations, from 0.001 to 1 mg/ml, was initially tested. The various test solutions were prepared in DMEM medium, […], supplemented with 10 vol % of FCS, fetal calf serum. […] The cell viability was evaluated by means of a Neutral Red colorimetric assay, after 72 hours of incubation. […] From 1 mg/ml, a slight dose-dependent cytotoxic effect is observed. […]
A second limited range of between 0.075 and 5 mg/ml was tested. […] The cell viability was evaluated by means of a Neutral Red colorimetric assay, after 72 hours of incubation. The results obtained were similar to those recorded in the absence of DMSO.

In the case of CC1OC(O[C@@H]2C(CO)OC(OCC3OC(OC(=O)C4CC(C)(C)CC5C6=CCC7C(CC(O)C8C(C)(CO)C(O)C(O)CC78C)C6(C)CCC45)[C@@H](O)C(O)[C@@H]3O)[C@@H](O)C2O)[C@@H](O)C(O)[C@H]1O (stereo partly drawn) [Terminoloside, 1-[O-α-L-rhamnopyranosyl-(1-4)-O-β-glucopyranosol-(1-6)]-O-β-D-glucopyranose 2α,3β,6β,23-tetrahydroxyolea-12-en-28-oate], the “Viability (24 h), % of control” value (0.05 mg/ml) is reported as 105%, the “Viability (24 h), % of control” value (0.1 mg/ml) is reported as 104% and the “Viability (24 h), % of control” value (0.25 mg/ml) is reported as 105%. The “Viability (24 h), % of control” value (0.5 mg/ml) was 105%, the “Viability (24 h), % of control” value (1 mg/ml) was 104% and the “Viability (24 h), % of control” value (2.5 mg/ml) was 100%. The “Viability (24 h), % of control” value (5 mg/ml) was 81%, the “Viability (24 h), % of control” value (10 mg/ml) was 73% and the “Viability (72 h), % of control” value (0.1 mg/ml) was 100%. The “Viability (72 h), % of control” value (0.25 mg/ml) was 101%, the “Viability (72 h), % of control” value (0.5 mg/ml) was 101% and the “Viability (72 h), % of control” value (0.75 mg/ml) was 103%. The “Viability (72 h), % of control” value (1 mg/ml) was 102%, the “Viability (72 h), % of control” value (2.5 mg/ml) was 103% and the “Viability (72 h), % of control” value (5 mg/ml) was 93%. For the same molecule, the “Viability (72 h), % of control” value (7.5 mg/ml) was 86%, the “Viability (72 h), % of control” value (10 mg/ml) was 69% and the “concentrations inducing no significant modification of the cell response to Neutral Red” value (HaCaT, 24 h of contact) was 2500 µg/mL.
